The source of these data is publication PMC6040651 (Pediatric blood & cancer, 2018).

Each structure is given as a SMILES string. Read-outs that look alike come from different tables or passages of the source.

Data set [1] in a line: Isotretinoin pharmacokinetics, single sample on cycle 1 day 14. The following applies: human, serum, oral, 80 mg/m^2/dose, 4 hr after the last dose of isotretinoin in cycle 1 (80 mg/m^2/dose twice daily), 12 patients.
Data set [2] relates to histone acetylation in PBMC. Conditions: cited from earlier work.
Data set [3] concerns refractory/recurrent neuroblastoma. Description: Antitumor activity. The following applies: vorinostat + isotretinoin. The format is in vivo, patients.
The test system of data set [4] is xenografts from neuroblastoma cell lines. Conditions: xenografts from four of six neuroblastoma cell lines; cited from earlier work.
For data set [5] the following is noted: dosed continuously; pediatric relapsed solid tumors; cited from earlier work.
Data set [6] can be described thus: Phase I dose escalation and toxicity assessment. The following applies: dose level 5 (430 mg/m^2/dose) + isotretinoin, n = 6.
Data set [7] in a line: Vorinostat serum pharmacokinetics, cycle 1.
For data set [8], the system named is acetylated histone H3 in PBMC. Description: PBMC histone acetylation. The format is in vivo, patients. The following applies: for Mean percent change in histone acetylation (HA) levels from baseline: PBMC.
The mark [9] stands for this setting: all dose levels, n = 23/28, geometric mean (95% confidence interval), oral, cycle 1.
The mark [10] stands for this setting: dose level 1 (180 mg/m^2/dose), n = 6/7, geometric mean (95% confidence interval), oral, cycle 1.
Setting [11] is: dose level 5—MTD (430 mg/m^2/dose), n = 9/12, geometric mean (95% confidence interval), oral, cycle 1.

What is called AUC(0-inf) is the area under the concentration-time curve extrapolated to infinity. The half-life is the time in which the quantity being followed falls by half. A lower half-life goes with fast loss.

`CC1=C(/C=C/C(C)=C/C=C/C(C)=C\C(=O)O)C(C)(C)CCC1` [isotretinoin, cis-13-retinoic acid]: the concentration at 4 h in data set [1] (Median serum concentration) is 830 ng/mL; in data set [1] (Serum concentration, range), 190 to 1400 ng/mL.
As to `O=C(CCCCCCC(=O)Nc1ccccc1)NO` [vorinostat, suberoylanilide hydroxamic acid], the results for the “Histone acetylation in PBMC” value in data set [2] (continuous vorinostat MTD (230 mg/m^2/dose)) and in data set [2] (highest continuous dose level of vorinostat (300 mg/m^2/dose)) were “only transient PBMC HA was observed” and “consistent PBMC HA”, respectively. In data set [3] (all dose levels, 19 patients evaluable for response), the “Objective responses (CR or PR)” value is “No objective responses”. Besides, the “Patients who received 11–15 cycles of therapy” value in data set [3] (7/29 patients) is given as 24%. Further, the “Patients completing ≥4 cycles without tumor progression” value in data set [3] (11 of the 29 patients) stood at 38%. Besides, in data set [3] (entire cohort of 29 patients), the “6-month PFS rate” value stood at 0.36 ± 0.09. The “Median PFS” value in data set [3] (entire cohort of 29 patients, 95% confidence interval 1.6–11.0 months) stood at 2.0 months. Further, the “Event-free survival compared to control-treated mice” value in data set [4] was “statistically significant prolongation in event-free survival”. The “MTD of vorinostat alone” value in data set [5] is on record as 230 mg/m^2/day. For the same compound, the “Number of patients with grade 3+ upper respiratory infection” value in data set [6] (all cycles) stood at 1; in data set [6] (first cycle), 0. Moreover, the “Clearance (Cl F obs)” value in data set [7] (setting [9]) was 151 (115, 197) l/hr; in data set [7] (setting [10]), 152 (93, 250) l/hr; in data set [7] (dose level 2 (230 mg/m^2/dose), n = 2/3, geometric mean (95% confidence interval), oral, cycle 1) it was 181 (76, 427) l/hr; in data set [7] (dose level 3 (300 mg/m^2/dose), n = 3/3, geometric mean (95% confidence interval), oral, cycle 1), 129 (64, 260) l/hr; in data set [7] (dose level 4 (360 mg/m^2/dose), n = 3/3, geometric mean (95% confidence interval), oral, cycle 1), 322 (159, 649) l/hr; in data set [7] (setting [11]), 118 (79, 177) l/hr. Moreover, the Cmax was 428 (348, 526) ng/ml in data set [7] (setting [9]); 158 to 980 ng/mL in data set [7] (human, serum, oral); 552 ng/mL in data set [7] (human, serum, po, 300 mg/m2); 587 ng/mL in data set [7] (human, serum, po, 430 mg/m2). In addition, the t½ in data set [7] (setting [10]) is listed as 2.6 (1.7, 4.0) hr; in data set [7] (setting [11]), 3.2 (2.3, 4.5) hr. For the same compound, the AUC(0-inf) was 930 to 5780 ng·h/mL in data set [7] (human, serum, oral); 2170 ng·h/mL in data set [7] (human, serum, po); 1350 ng·h/mL in data set [7] (human, serum, po, 180 mg/m2); 1670 ng·h/mL in data set [7] (human, serum, po, 230 mg/m2); 2640 ng·h/mL in data set [7] (human, serum, po, 300 mg/m2); 3250 ng·h/mL in data set [7] (human, serum, po, 430 mg/m2). In data set [7] (human, serum, oral), this compound registered a clearance of 967 to 7250 mL/min. Besides, the half-life is 1.2 to 10.1 h in data set [7] (human, serum, oral) and 2.4 h in data set [7] (human, serum, po, 230 mg/m2). In data set [8] (1 hr post treatment, P = 0.009, difference persisted at hours 6 and 24), the “Percent change from baseline in HA levels, dose level 5 compared to dose levels 1–4” value is “significantly greater”. Moreover, the “Mean percent change in histone acetylation (HA) levels from baseline” value was 18.5% in data set [8] (dose level 5, hour 1, 6 patients); 21.9% in data set [8] (dose level 5, hour 6, 6 patients); 14.4% in data set [8] (dose level 5, hour 24, 5 patients); “–3.9%” in data set [8] (dose levels 1–4, hour 1, 7 patients); “–2.9%” in data set [8] (dose levels 1–4, hour 6, 5 patients).
